PMC5399447, “Neuroprotective pentapeptide CN-105 is associated with reduced sterile inflammation and improved functional outcomes in a traumatic brain injury murine model” (Scientific Reports, 2017)

Key:
TBI mice = test: Tolerability after injury; type: in vivo, mouse; details: treatment after injury
Protocol: (§1) CN-105(Ac-VSRRR-amide) was synthesized by Polypeptide Inc.(San Diego, CA) to a purity of >99%, and was delivered in sterile normal saline. Animals were placed in a restrainer(Harvard Apparatus, Holliston, MA), and a single intravenous dose of drug(0.05 mg/kg) was administered by tail vein in a volume of 100 μL. Vehicle treated animals received intravenous injection of 100 μL of normal saline at the same time points. Animals were assigned to treatment group by a coded study identification number after injury using a paper randomization protocol. A block randomization scheme was used, so that an equal number of animals were randomized to each of the treatment groups during concurrent experiments.

[1] = tested on: degenerating neurons in dentate gyrus of TBI mice; test: Fluoro-Jade B staining of degenerating neurons; type: in vivo, mouse; details: 0.05 mg/kg, 24 hours post-injury, 6 vehicle and 6 CN-105 mice, p < 0.00001
Protocol: To assess the effects of CN-105 on inflammation, neuronal injury and neuronal loss, immunohistochemical(IHC) staining was performed using the F4/80 antibody(a marker for mature microglia and macrophages; rat monoclonal, 1:10,000; Serotec, Raleigh, NC) and the Fluoro-Jade B stain(a marker of degenerating neurons; Histo-Chem Inc. Jefferson, AR) on days 10 and 1, respectively, after TBI. IHC was performed on separate cohorts of mice from those used in neurobehavioral tests. As previously described, mice were anesthetized, euthanized, and perfused with 30 ml phosphate-buffered saline(PBS) via transcardiac puncture. The brains were then immersed in buffered formalin overnight and saturated with 30% sucrose in buffer. Sagittal sections(40 μm) were sliced on a freezing microtome and collected in cryoprotectant solution. […]
For Fluoro-Jade B, brain sections from 12 TBI mice(6 vehicle and 6 CN-105) containing the dorsal hippocampus(5–6 sections per animal) were examined for degenerating neurons using an epifluorescence microscope(Nikon, Tokyo, Japan) with a medium band blue excitation(Nikon B-2A, 450–490 nm) filter set. […] Degenerating neurons were counted and the total number of Fluoro-Jade B-positive neurons per every eighth brain slice was recorded. […]

[2] = tested on: murine closed head injury model (TBI); test: Rotarod vestibulomotor function after closed head injury; type: in vivo, mouse; details: for Rotarod functional performance compared to vehicle: n = 11-12/group
Description: The murine closed head injury model used in this study was previously described. The closed head impact results in injury to selectively vulnerable neurons in cortex and hippocampus, and is associated with vestibulomotor deficits and long term neurocognitive deficits. Although animals do lose body weight, they rapidly regain spontaneous ventilation, righting reflex, and the ability to ambulate. Briefly, 12–14 week-old C57Bl/6 J male mice(Jackson Laboratories, Bar Harbor, ME) were used. The trachea was intubated after anesthesia induction with 4.6% isoflurane and the lungs were mechanically ventilated with 1.6% isoflurane in 30% O2/70% N2. Core body temperature was maintained at 37 °C through a rectal probe. To avoid basilar skull fracture, ear bars are not used. The animal was secured in a stereotactic device in a prone position on a molded acrylic cast with surgical tape across the shoulders. The intubation tube was also secured to the acrylic cast with tape. The acrylic cast is designed to allow the mouse to have 3 mm of space below the head to allow for acceleration/decelaration of the head in this position. The head was shaved and the scalp was incised to expose the skull and identify anatomical landmarks. A concave 3-mm metallic disc was adhered to the skull immediately caudal to bregma. A 2.0-mm diameter pneumatic impactor(Air-Power Inc., High Point, NC) was used to deliver a single midline impact to the center of the disc surface. The impactor was discharged at 6.8 ± 0.2 m/second with a head displacement of 3 mm. After impact, the animals were allowed to recover spontaneous ventilation and then the tracheas were extubated. Mice were allowed free access to food and water. Sham mice were treated identically except for the absence of impact. All mice were housed in the same facility.
as §1, with “Animals were placed in a restrainer(Harvard Apparatus, Holliston, MA), and a single intravenous dose of drug(0.05 mg/kg) was administered by tail vein in a volume of 100 μL.” left out
An automated Rotarod(Ugo Basile, Comerio, Italy) was used to assess vestibulomotor function. On the day prior to injury, mice(n = 11–12 mice per group) underwent one training trial at an accelerating rotational speed(4–40 rpm) for at least 200 seconds and then three additional test trials with the same accelerating rotational speed. The average time to fall from the rotating cylinder in the test trials was recorded as baseline latency. Mice were tested on consecutive days post-injury and received three consecutive daily trials with accelerating rotational speed(inter-trial interval = 15 minutes)(n = 10–12 mice). The average latency to fall from the rod was recorded. Mice unable to grasp the rotating rod were given a latency value of 0 seconds.

[3] = tested on: murine model of intracranial hemorrhage; details: cited from earlier work
Description: The possibility that the apoE mimetic peptide modifies sterile inflammation in the central nervous system is particularly relevant after traumatic brain injury, where glial activation and neuroinflammatory responses exacerbate secondary tissue injury. […] For example, there are a number of limitations inherent to all rodent models of traumatic brain injury. This includes the lissencephalic nature of rodent brains, which precludes testing of higher and more subtle cortical functions that are directly applicable to the clinical setting. Moreoever, rodent brains have reduced ratio of white: grey matter as compared to primates, and thus are not ideal to model the diffuse axonal injury that may occur in the clinical s ...

In the case of Ac-VSRRR-amide [CN-105], the tolerability (TBI mice) is reported as “well tolerated”, the “number of Fluoro-Jade B positive neurons, dorsal hippocampus, compared to vehicle” value [1] is reported as “significant decrease in the number of Fluoro-Jade B positive neurons” and the “Rotarod functional performance compared to vehicle” value ([2]; 0.0125 mg/kg iv 2 h after TBI, p = 0.267) is reported as “did not show robust improvement”. For the same substance, the “Rotarod functional performance compared to vehicle” value ([2]; 0.05 mg/kg iv 2 h after TBI, p = 0.011) was “improved functional performance”, the “Rotarod latency compared to vehicle” value ([2]; 0.05 mg/kg iv 4 hours post-injury) was “significant and durable improvement in Rotarod latency” and the “Rotarod functional performance compared to vehicle” value ([2]; 0.2 mg/kg iv 2 h after TBI, p = 0.023) was “improved functional performance”. The “Rotarod functional performance compared to vehicle” value ([2]; 0.8 mg/kg iv 2 h after TBI, p = 0.009) was “improved functional performance”, the “lowest effective dose resulting in improved functional performance” value ([2]; iv 2 h after TBI, Rotarod) was 0.05 mg/kg and the “effect of pretreatment on vestibulomotor and cognitive function” value ([2]; pretreatment 30 minutes prior to TBI, data not shown) was “no additional effects on vestibulomotor and cognitive function”. For the same substance, the functional outcome ([3]; model of intracranial hemorrhage) was “improves functional outcome” and the cerebral edema ([3]; murine model of intracranial hemorrhage) was “reduces cerebral edema”.
